Source: publication PMC8619914, “Development of Novel Peptides for the Antimicrobial Combination Therapy against Carbapenem-Resistant Acinetobacter baumannii Infection” (Pharmaceutics, 2021)
≈ marks a conversion by molar mass, not a printed value. Like-named read-outs stand apart in the source and are kept apart here. Where no end group is shown, it is not given here.

Tests used:
[1] = tested on: Acinetobacter baumannii (KCCM 40203); test: microbe, parasite or virus in culture; conditions: for Minimum Inhibitory Concentration, A. baumanii: KCCM 40203, 16 h; for MIC: Acinetobacter baumannii, KCCM40203, 16 h, read-out: Minimum Inhibitory Concentration, A. baumanii
Text: (§1) The Gram-negative bacterial strain Escherichia coli (KCTC 1682) and Gram-positive bacterial strain Staphylococcus aureus (KCTC 1621) were purchased from the Korean Collection for Type Cultures (Jeongeup, Korea). Acinetobacter baumannii (KCCM 40203) were purchased from Korea Culture Center of Microorganisms (Seoul, Korea). Additionally, five carbapenem-resistant Acinetobacter baumanii C1–C5 (CRAB C1–C5), which have the OXA-23 gene with carbapenem-resistance were collected from the patients with CRAB bacteremia, who presented symptoms and signs of infection at Korea University Anam Hospital (Seoul, Korea) (IRB registration no. 2020AN0157). The minimum inhibitory concentrations (MIC) of the AMP and antibiotics against the various bacterial strains were assessed using the serial dilution method on Muller–Hinton (MH) media, as described previously. […] Absorbance at 600 nm was measured using a SpectraMAX microplate reader (Molecular Devices, San Jose, CA, USA).
(§2) Measurement of the minimum inhibitory concentrations (MIC) was conducted to determine the effect of the hydrophobicity of each antimicrobial peptide on its antimicrobial activity. MIC was defined as the minimum concentration that killed more than 99% of bacteria; it was measured against two standard Gram-negative bacteria (E. coli and A. baumanii), five clinically isolated CRAB (C1–C5), and one Gram-positive bacteria (S. aureus).

[2] = tested on: CRAB C1; test: microbe, parasite or virus in culture; conditions: 16 h; for Minimum Inhibitory Concentration, CRAB C1: MH media, 2 × 10^5 CFU·mL^−1, 37 °C, absorbance 600 nm; for MIC: Acinetobacter baumannii
Text: as §1, §2

[3] = tested on: CRAB C2; test: microbe, parasite or virus in culture; conditions: 16 h; for Minimum Inhibitory Concentration, CRAB C2: MH media, 2 × 10^5 CFU·mL^−1, 37 °C, absorbance 600 nm; for MIC: Acinetobacter baumannii, read-out: Minimum Inhibitory Concentration, CRAB C2
Text: as §1, §2

[4] = tested on: CRAB C3; test: microbe, parasite or virus in culture; conditions: 16 h; for Minimum Inhibitory Concentration, CRAB C3: MH media, 2 × 10^5 CFU·mL^−1, 37 °C, absorbance 600 nm; for MIC: Acinetobacter baumannii, read-out: Minimum Inhibitory Concentration, CRAB C3
Text: as §1, §2

[5] = tested on: CRAB C4; test: microbe, parasite or virus in culture; conditions: 16 h; for Minimum Inhibitory Concentration, CRAB C4: MH media, 2 × 10^5 CFU·mL^−1, 37 °C, absorbance 600 nm; for MIC: Acinetobacter baumannii, read-out: Minimum Inhibitory Concentration, CRAB C4
Text: as §1, §2

[6] = tested on: CRAB C5; test: microbe, parasite or virus in culture; conditions: 16 h; for Minimum Inhibitory Concentration, CRAB C5: MH media, 2 × 10^5 CFU·mL^−1, 37 °C, absorbance 600 nm; for MIC: Acinetobacter baumannii, read-out: Minimum Inhibitory Concentration, CRAB C5
Text: as §1, §2

[7] = tested on: Escherichia coli (KCTC 1682); test: microbe, parasite or virus in culture; conditions: for Minimum Inhibitory Concentration, E. coli: MH media, 2 × 10^5 CFU·mL^−1, 37 °C, 16 h, absorbance 600 nm, MIC kills more than 99% of bacteria; for MIC: Escherichia coli, KCTC1682, 16 h, read-out: Minimum Inhibitory Concentration, E. coli
Text: as §1, §2

[8] = tested on: Staphylococcus aureus (KCTC 1621); test: microbe, parasite or virus in culture; conditions: for Minimum Inhibitory Concentration, S.aureus: KCTC 1621, 16 h; for MIC: Staphylococcus aureus, KCTC1621, 16 h, read-out: Minimum Inhibitory Concentration, S.aureus
Text: as §1, §2

[9] = tested on: Gram-negative bacterial strains; test: organism not typed; conditions: for GM (mean MIC of Gram-negative bacterial strains): seven Gram-negative strains, 256 assumed for MIC > 128 and 1024 for MIC > 512 μg·mL^−1; for MIC: read-out: GM (mean MIC of Gram-negative bacterial strains)
Text: as §1
Geometric means (GM) were calculated to compare the relative antimicrobial activities of the analogs against Gram-negative bacteria. […] Next, the antibacterial mechanisms of peptides were investigated.

[10] = tested on: CRAB C1; test: microbe, parasite or virus in culture; conditions: Acinetobacter baumannii, 16 h, read-out: MIC alone, CRAB C1
Method: (§3) The synergistic effects of AMPs and antibiotics were measured using checkerboard assays. Serial dilutions of PapMA-3 and antibiotics were performed from 1 to […] of the MIC. Samples were then cross-mixed and cultured in MH medium with 2 × 10^5 CFU·ml^−^1 bacteria. Results were recorded after 16 h of incubation at 37 °C. The fractional inhibitory concentration index (FICI) was calculated according to the European Committee on Antimicrobial Susceptibility (EUCAST).
(§4) The ability of PapMA-3 to facilitate these antibiotics in penetrating the bacterial membranes of Gram-negative bacteria was investigated.

[11] = tested on: CRAB C2; test: microbe, parasite or virus in culture; conditions: Acinetobacter baumannii, 16 h, read-out: MIC alone, CRAB C2
Method: as §3, §4

[12] = tested on: CRAB C3; test: microbe, parasite or virus in culture; conditions: Acinetobacter baumannii, 16 h, read-out: MIC alone, CRAB C3
Method: as §3, §4

[13] = tested on: CRAB C4; test: microbe, parasite or virus in culture; conditions: Acinetobacter baumannii, 16 h, read-out: MIC alone, CRAB C4
Method: as §3, §4

[14] = tested on: CRAB C5; test: microbe, parasite or virus in culture; conditions: Acinetobacter baumannii, 16 h, read-out: MIC alone, CRAB C5
Method: as §3, §4

[15] = tested on: CRAB C1 biofilm; test: Biofilm inhibition, crystal violet; assay type: cell-based, carbapenem-resistant Acinetobacter baumannii; conditions: Acinetobacter baumannii, read-out: percentage of biofilm inhibition
Method: CRAB C1 cells (2 × 10^5 CFU·mL^−^1) were incubated with PapMA-3 and antibiotics in a tissue-culture well plate in MH medium containing 0.2% glucose for 16 h at 37 °C. The cells were stained with 0.1% (w/v) crystal violet in 0.25% (v/v) acetic acid for 1 h at room temperature; the dye complex was dissolved with ethanol. Absorbance at 595 nm was measured using SpectraMAX microplate reader (Molecular Devices) to quantify the biofilm formation.
Biofilms were quantified by staining with crystal violet. (A) Absorbance of crystal violet-stained biofilms with treatment of PapMA-3 and antibiotics at a concentration range of 32 to 512 μg·mL^−1, assessed at 595 nm. […] CRAB C1 without peptides or antibiotics served as the control (red). Statistical analysis was performed using two-way ANOVA with Dunnett’s comparison test. The values are expressed as the mean ± SEM of three independent experiments and are statistically significant at ** p < 0.01 and *** p < 0.001. ns, not significant.

[16] = read-out: Minimum Inhibitory Concentration, CRAB C1

## RWKIFKKIPKFLHSWKKW-NH2 [PapMA-6]
[1]
  Minimum Inhibitory Concentration, A. baumanii: 8 µg/mL
[2]
  Minimum Inhibitory Concentration, CRAB C1: 8 µg/mL
[3]
  Minimum Inhibitory Concentration, CRAB C2: 8 µg/mL
[4]
  Minimum Inhibitory Concentration, CRAB C3: 8 µg/mL
[5]
  Minimum Inhibitory Concentration, CRAB C4: 16 µg/mL
[6]
  Minimum Inhibitory Concentration, CRAB C5: 16 µg/mL
[7]
  Minimum Inhibitory Concentration, E. coli: 16 µg/mL
[8]
  Minimum Inhibitory Concentration, S.aureus: 32 µg/mL
[9]
  GM (mean MIC of Gram-negative bacterial strains): 11 µg/mL

## RWKIFKKIPKFLHSAKKF-NH2 [PapMA]
[1]
  Minimum Inhibitory Concentration, A. baumanii: 32 µg/mL
[2]
  Minimum Inhibitory Concentration, CRAB C1: 32 µg/mL
[3]
  Minimum Inhibitory Concentration, CRAB C2: 32 µg/mL
[4]
  Minimum Inhibitory Concentration, CRAB C3: 16 µg/mL
[5]
  Minimum Inhibitory Concentration, CRAB C4: 64 µg/mL
[6]
  Minimum Inhibitory Concentration, CRAB C5: 32 µg/mL
[7]
  Minimum Inhibitory Concentration, E. coli: 32 µg/mL
[8]
  Minimum Inhibitory Concentration, S.aureus: 64 µg/mL
[9]
  GM (mean MIC of Gram-negative bacterial strains): 34 µg/mL

## C[C@@H](O)[C@H]1C(=O)N2C(C(=O)O)=C(SCCN=CN)C[C@H]12 [Imipenem]
[1]
  MIC: 0.25 µg/mL (≈ 0.835 µM)
[2]; [16]
  MIC: 64 µg/mL (≈ 214 µM)
[2]; read-out: Minimum Inhibitory Concentration, CRAB C1, MH Media
  MIC: 64 µg/mL (≈ 214 µM)
[3]
  MIC: 64 µg/mL (≈ 214 µM)
[4]
  MIC: 64 µg/mL (≈ 214 µM)
[5]
  MIC: 64 µg/mL (≈ 214 µM)
[6]
  MIC: 64 µg/mL (≈ 214 µM)
[7]
  MIC: 0.25 µg/mL (≈ 0.835 µM)
[8]
  MIC: 1 µg/mL (≈ 3.34 µM)
[9]
  MIC: 46 µg/mL
[10]
  MIC: 64 µg/mL
[11]
  MIC: 64 µg/mL
[12]
  MIC: 64 µg/mL
[13]
  MIC: 64 µg/mL
[14]
  MIC: 64 µg/mL
[15]; 32 μg·mL^−1, CRAB C1, compared to the control
  inhibition at 32 µg/mL: 88.9%

## RWKIFKKIPKFLHSAKKA-NH2 [PapMA-2]
[1]
  Minimum Inhibitory Concentration, A. baumanii: 128 µg/mL
[2]
  Minimum Inhibitory Concentration, CRAB C1: 128 µg/mL
[3]
  Minimum Inhibitory Concentration, CRAB C2: >128 µg/mL
[4]
  Minimum Inhibitory Concentration, CRAB C3: 64 µg/mL
[5]
  Minimum Inhibitory Concentration, CRAB C4: >128 µg/mL
[6]
  Minimum Inhibitory Concentration, CRAB C5: 128 µg/mL
[7]
  Minimum Inhibitory Concentration, E. coli: 64 µg/mL
[8]
  Minimum Inhibitory Concentration, S.aureus: >128 µg/mL
[9]
  GM (mean MIC of Gram-negative bacterial strains): 146 µg/mL

## CN[C@H](CC(C)C)C(=O)N[C@H]1C(=O)N[C@@H](CC(N)=O)C(=O)N[C@H]2C(=O)N[C@H]3C(=O)N[C@H](C(=O)N[C@H](C(=O)O)c4cc(O)cc(O)c4-c4cc3ccc4O)[C@H](O)c3ccc(c(Cl)c3)Oc3cc2cc(c3O[C@@H]2O[C@H](CO)[C@@H](O)[C@H](O)[C@H]2O[C@H]2C[C@](C)(N)[C@H](O)[C@H](C)O2)Oc2ccc(cc2Cl)[C@H]1O [Vancomycin]
[1]
  MIC: 256 µg/mL (≈ 177 µM)
[2]; [16]
  MIC: 256 µg/mL (≈ 177 µM)
[3]
  MIC: 256 µg/mL (≈ 177 µM)
[4]
  MIC: 256 µg/mL (≈ 177 µM)
[5]
  MIC: 512 µg/mL (≈ 353 µM)
[6]
  MIC: 256 µg/mL (≈ 177 µM)
[7]
  MIC: 128 µg/mL (≈ 88.3 µM)
[8]
  MIC: 0.5 µg/mL (≈ 0.345 µM)
[9]
  MIC: 274 µg/mL
[10]
  MIC: 256 µg/mL
[11]
  MIC: 256 µg/mL
[12]
  MIC: 256 µg/mL
[13]
  MIC: 512 µg/mL
[14]
  MIC: 256 µg/mL
[15]
  inhibition at 32 µg/mL: 77.2%
